“Also recorded” adds a separate entry of the source. Where two headings read alike, the source gives them in different places. A value given as a limit tells only on which side of the number the result lay.

The source of these data is patent US20130296316A1, “Antiparasitic Agents Based On mTOR Inhibitors” (priority 2010, published 2013).

Series [1] has as its system Leishmania. To be noted: methods similar to those described here; cited from earlier work.
A further series concerns T. b. rhodesiense. The series can be described thus: Potency assessment against T. b. rhodesiense EATRO3 bloodstream form (AlamarBlue, 72 h). It is filed as cell-based, Trypanosoma brucei rhodesiense.
In another series the test system is T. b. brucei Lister 927. The series can be described thus: Potency assessment against T. b. brucei Lister 927. It is filed as cell-based, Trypanosoma brucei brucei. To be noted: Table 3. The method, then:
Assays were performed using the strain of T. brucei brucei Lister 427 adapted to the laboratory, and the human-infective strain T. b. rhodesiense (EATRO3 ETat1.2 TREU164 [37]). Both strains were grown and tested as bloodstream forms. To establish the EC50, cultures of Trypanosoma brucei and T. b. rhodesiense were treated with two-fold increasing concentrations of compounds (with similar DMSO increasing concentration as control). Cell populations were measured at 72 hours with an Infinite F200 microplate reader (Tecan Austria GmbH, Austria); the determination of cell viability was carried out by the established colorimetric technique AlamarBlue® with modifications, a 96-well plate format spectrophotometric assay which measures the ability of living cells to reduce resazurin [38,39]. Data obtained with T. b. brucei Lister 427 were confirmed by manual counting in a Neubauer chamber for a direct microscopic examination to rule out multinucleated phenotypes that could mask the colorimetric assays, as well as the subtraction of solvent background to dismiss a potential solvent-derived fluorescence. Pentamidine was used as drug control for potency comparison, and T. b. brucei Lister 927 strain was included in our experiments to evaluate the adaptation to medium for the different strains as a variable condition.

Another series deals with T. cruzi Y strain. The series is described as follows: Mouse model of T. cruzi infection (luciferase imaging). It is filed as in vivo, Balb/c mice. The conditions noted are these: 30 mg/kg, 5 days, intraperitoneal. The method, then: (§1) The targeted dosage of inhibitors was determined based on the pharmacokinetic studies disclosed by Maira, et al.. […] For L. major, 12.5 mg/kg orally was the highest tolerable dose while 30 mg/kg intraperitoneally was used for the T. cruzi infections. A lower dose was initially used in T. brucei, 5 or 10 mg/kg intraperitoneally.
Balb/c mice were inoculated intraperitoneally with 10^5 trypomastigotes from T. cruzi Y strain expressing firefly luciferase (kindly provided by Dr. Barbara Burleigh, Harvard University). On day 7 post-infection, mice were anesthetized with ketamine/xylazine and injected with 3 mg of D-Luciferin Potassium Salt (Gold Biotechnology) at 20 mg/ml in PBS and imaged in the IVIS Lumina II (Caliper Life Sciences). […] Mice were treated for 5 days and imaged again on day 13. Data is expressed as the ratio between luciferase units in day 13 versus day 7 to determine the progression of infection with and without drug treatment.

Series [2] has as its system free T. cruzi trypomastigotes. The series can be described thus: T. cruzi extracellular survival of free trypomastigotes (24 h, CPRG). It is filed as cell-based, Trypanosoma cruzi. Here is the method:
T. cruzi trypomastigotes from the Tulahuen strain stably expressing the β-galactosidase gene were obtained from the supernatant of infected cultures of LLC-MK2 cells harvested between days 5 and 7. To remove amastigotes, trypomastigotes were allowed to swim out of the pellet of samples that had been centrifuged for 7 min at 2500 rpm.
Free trypomastigotes were rinsed once and placed in 96-well plates at 100,000/well with the compounds in a final volume of 200 μl of DMEM without phenol red supplemented with 2% FBS, Pen-Strep-Glut and 100 μM CPRG. Plates were incubated for 24 h at 37° C. and absorbance was read at 590 nm.

The test system of a further series is T. cruzi trypomastigotes. The series is described as follows: T. cruzi intracellular replication in NIH/3T3 host cells (β-galactosidase, CPRG). The format is cell-based, Trypanosoma cruzi.
For series [3], the system named is Leishmania. The series can be described thus: Leishmania growth inhibition summarised across both species and stages. The format is cell-based. The conditions noted are these: range over L. major and L. donovani, promastigotes and amastigotes; read-out: inhibition of Leishmania across both species and stages.
The next series relates to L. major. The series can be described thus: Mouse model of L. major infection (bioluminescent imaging). The format is in vivo, Balb/c mice. The method, then:
as §1
Mouse experiments were done in compliance with policies approved by the Animal Review Board at Washington University. Mice were infected with luciferase expressing L. major (LmFV1LucTK-1) and analyzed by bioluminescent imaging as described. Balb/c mice were infected with 10^5 L. major metacyclic stage parasites purified by gradient centrifugation. Luminescence was measured using an IVIS 100 instrument and analyzed with Living Image software version 2.60.

Series [4] has as its system L. major promastigotes. The series is described as follows: Cell size and DNA content analysis in Leishmania (flow cytometry). It is filed as cell-based, Leishmania major. The method, then: L. major log phase promastigotes were inoculated at a concentration of 10^6 cells/ml into media with compounds as indicated, and incubated overnight with varying drug concentrations to assess cell size and DNA content. For cell size, forward scatter of live promastigotes was measured by a FACS flow cytometer (Becton Dickinson), utilizing dye exclusion with 5 μg/ml propidium iodide (PI) to gate for live cells. DNA content was determined by flow cytometry using fixed and permeabilized L. major stained with PI as previously described, but reducing the incubation time with PI and RNase A from 1 hour to 30 minutes. Histogram analysis was performed using CellQuest 3.1 software (BD Bioscience).
Background: Flow cytometry measures light scatter and fluorescence of single cells or particles in a stream.

For series [5], the system named is L. donovani axenic amastigotes. The series can be described thus: Potency assessment against Leishmania donovani axenic amastigotes (growth, cell counting). The format is cell-based. To be noted: axenic amastigotes, average of three replicates; read-out: Effective concentration (EC50) L. donovani axenic amastigotes.
The subject of series [6] is L. major promastigotes. The series is described as follows: Potency assessment against Leishmania major promastigotes (growth, cell counting). The format is cell-based. To be noted: promastigotes, average of three replicates; read-out: Effective concentration (EC50) L. major.
Series [7] deals with T. brucei gambiense, ELIANE strain. The series is described as follows: Potency assessment against T. b. gambiense ELIANE bloodstream form. The format is cell-based, Trypanosoma brucei gambiense.
The subject of the next series is T. b. rhodesiense EATRO3. The series can be described thus: Acute mouse infection model of T. b. rhodesiense. The format is in vivo, Balb/c mice. To be noted: for mean survival day (MSD): once per day for four days, untreated died 6th day.
In series [8] the test system is L. donovani promastigotes. The series is described as follows: Potency assessment against Leishmania donovani promastigotes (growth, cell counting). The format is cell-based. To be noted: promastigotes, average of three replicates; read-out: Effective concentration (EC50) L. donovani promastigotes.
Series [9] has as its system T. brucei brucei Lister 427 bloodstream cells. The series is described as follows: Morphological and cell cycle alterations in T. brucei (flow cytometry). It is filed as cell-based, Trypanosoma brucei brucei. The method, then: Flow cytometry was used to assess cell size and DNA content, to reveal a G1 arrest and inhibition of protein synthesis or G2 arrest and multinucleated cells. […]. After permeabilization with […], saponin (0.5 mg/mL final concentration), the culture was RNAse treated for 30 minutes (10 μg/mL final concentration) and stained with 20 μg/mL propidium iodide immediately before its acquisition in a FACscan cytometer. Cells incubated with equivalent concentration of drug solvent (DMSO) were included in each experiment as control population.

Series [10] relates to T. brucei brucei Lister 427. The series can be described thus: Potency assessment against T. brucei brucei Lister 427 bloodstream form (AlamarBlue, 72 h). It is filed as cell-based, Trypanosoma brucei brucei. (In general: Resazurin is reduced to fluorescent resorufin, in cell work by metabolically active cells.)
For a further series, the system named is human cells. To be noted: literature, Table 1; read-out: Inhibition of Cell Growth EC50; cited from earlier work.

As to `C[C@@H]1[C@H](O)[C@@H](C)/C=C/C=C/C=C/C=C/C=C/C=C/C=C/[C@H](O[C@@H]2O[C@H](C)[C@@H](O)[C@H](N)[C@@H]2O)C[C@@H]2O[C@](O)(C[C@@H](O)C[C@@H](O)[C@H](O)CC[C@@H](O)C[C@@H](O)CC(=O)O[C@H]1C)C[C@H](O)[C@H]2C(=O)O` [amphotericin B], in the series on Leishmania [1], the “potency of anti-leishmanial agent” value is 0.03 µM.
Regarding NVP-BEZ235, the EC50 with T. b. rhodesiense (Table 3, read-out: EC50 T. b. rhodesiense EATRO3) is 0.73 ± 0.06 nM; in the series with T. b. rhodesiense (bloodstream form, cell printed in nM, read-out: Effective concentration (EC50) T. b. rhodesiense), 0.73 ± 0.06 nM; in the series on T. b. rhodesiense (read-out: activity against EATRO3 strain of T. b. rhodesiense), 0.73 nM; in the series with T. b. brucei Lister 927, 0.0017 ± 0.0005 µM; in [2] (non-replicating, outside host cells, read-out: EC50 against free trypomastigotes), greater than 50 µM; in the series with T. cruzi trypomastigotes (read-out: EC50 T. cruzi infection of host cell fibroblasts), 0.12 µM. The EC50 with Leishmania [3] is 0.07 to 0.14 µM; in series [5], 0.07 ± 0.04 µM; with L. major promastigotes [6], 0.11 ± 0.05 µM; in series [7] (Table 3, read-out: EC50 T. b. gambiense ELIANE) it was 0.00018 ± 0.0002 µM; in [7] (read-out: EC50 against BSF T. brucei gambiense ELIANE) it was 0.000179 µM; in [8], 0.14 ± 0.08 µM. Besides, the EC50 was 16.3 ± 4.7 nM in series [10] (Table 3, read-out: EC50 T. b. brucei 427); less than 10 nM in series [10] (bloodstream form, cell printed in nM, read-out: Effective concentration (EC50) T. b. brucei); 0.05 µM in the series with human cells. In addition, in the series with T. cruzi Y strain, the “efficacy against T. cruzi infection” value is reported as “no efficacy”. For the same compound, the “activity against free, non-replicating T. cruzi trypomastigotes in words” value in [2] was “inactive”. In addition, in the series on T. cruzi trypomastigotes (350 nM, after three days, NIH-3T3 host cells), the “amastigote lysis within host cells” value was “amastigotes lysis within host cells was observed”. In the series on L. major (12.5 mg/kg/day oral gavage, L. major infected mice), the “body weight of drug-treated mice” value is listed as “significant weight loss; also recorded: severe weight loss”. In addition, the “efficacy against L. major infection” value in the series on L. major (12.5 mg/kg/day, 10 days, oral gavage) was “no efficacy; also recorded: no therapeutic effect”. The “lethality at higher doses” value with L. major (dosing intraperitoneally at 25 mg/kg/day (higher drug doses)) was “lethal”. For the same compound, the highest tolerable dose in the series on L. major (orally, L. major mouse model) was determined as 12.5 mg/kg. Also, in the series with L. major promastigotes [4], the “effect on cell size and DNA content, L. major promastigotes” value was “G2 growth arrest and increased promastigote size”. Also, the “mean survival day (MSD)” value in the series on T. b. rhodesiense EATRO3 (5 mg/kg intraperitoneal) is recorded as 10.8 (±2.4) days; with T. b. rhodesiense EATRO3 (10 mg/kg intraperitoneal), 13.4 (±3.3) days. For the same compound, the parasites eliminated with T. b. rhodesiense EATRO3 (10 mg/kg, for four days) is listed as 80%. Besides, the parasitemia in the series with T. b. rhodesiense EATRO3 (5 or 10 mg/kg intraperitoneal, within two days, detection limit) is reported as < 10^4 parasites/mL. The “effect on cellular DNA content / cell cycle, T. b. brucei” value in series [9] was “appearance of zoids (anucleated cells) [59] and multinucleated cells; also recorded: reduction of G1 and G2 cells”. Further, in series [10] (Lister 427), the “potency against BSF T. brucei brucei in words” value is listed as “nanomolar potency”.
